Measured values published in US4985441A, “Anti-tumor agents” (Imperial Chemical Industries plc, priority 1988, dated 1991).

Key:
[1] = target: T1, thymidylate synthetase (Mus musculus, UniProt P07607); test: Test (a): in vitro inhibition of thymidylate synthetase (partially purified from L1210 mouse leukaemia cells); format: biochemical; conditions: enzyme partially purified from L1210 mouse leukaemia cells; read-out: IC50 against thymidylate synthetase [Test (a)]
T1 construct: obtained in partially purified form from L1210 mouse leukaemia cells; endogenous in cells; host or cells: L1210 mouse leukaemia cells (enzyme partially purified)
T1 sequence (P07607 whole entry): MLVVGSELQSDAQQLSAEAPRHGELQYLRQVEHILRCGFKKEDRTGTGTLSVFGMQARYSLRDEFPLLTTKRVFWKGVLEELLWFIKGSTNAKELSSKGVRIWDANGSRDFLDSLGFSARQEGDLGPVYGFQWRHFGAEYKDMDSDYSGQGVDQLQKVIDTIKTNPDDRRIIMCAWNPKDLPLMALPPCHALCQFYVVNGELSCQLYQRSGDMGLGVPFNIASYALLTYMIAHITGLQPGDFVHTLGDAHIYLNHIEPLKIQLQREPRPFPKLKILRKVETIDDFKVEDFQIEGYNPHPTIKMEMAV
Text: (a) An in vitro assay which determines the ability of a test compound to inhibit the enzyme thymidylate synthetase. Thymidylate synthetase may be obtained in partially purified form from L1210 mouse leukaemia cells and utilised using the procedures described by Jackman et al. (Cancer Res., 1986, 46, 2810);

[2] = test system: L1210 cell line; test: Test (b): inhibition of growth of the leukaemia cell line L1210 in cell culture; format: cell-based; conditions: Mus musculus, read-out: IC50 against the L1210 cell line [Test (b)]
Text: Compounds of the CB3717 type are believed to act as anti-tumour agents by inhibiting the enzyme thymidylate synthetase. The anti-tumour activity of CB3717 may be assessed in vitro by determining its inhibitory effect on that enzyme, and in cell cultures by its inhibitory effect on cancer cell lines such as the mouse leukaemia cell lines L1210 and L5178Y TK-/- and the breast cancer cell line MCF-7.
(b) An assay which determines the ability of a test compound to inhibit the growth of the leukaemia cell line L1210 in cell culture. The test is similar to that described in UK Patent Specification No. 2065653B;

[3] = test system: liver and kidney; conditions: clinical; literature references; cited from earlier work
[4] = test system: human breast, ovarian and liver cancer; conditions: clinical; literature references; cited from earlier work

| SMILES | IC50 [1] [µM] | IC50 [2] [µM] | toxicity in humans [3] | activity against human breast, ovarian and liver cancer [4] |
| --- | --- | --- | --- | --- |
| C#CCN(Cc1ccc2nc(C)nc(O)c2c1)c1ccc(C(=O)NCCC)cc1 [p-[N-(3,4-dihydro-2-methyl-4-oxoquinazolin-6-ylmethyl)-N-(prop-2-ynyl)amino]-N-propylbenzamide] | 1.8 | 7 |  |  |
| C#CCN(Cc1ccc2nc(N)[nH]c(=O)c2c1)c1ccc(C(=O)N[C@@H](CCC(=O)O)C(=O)O)cc1 [CB3717] |  |  | symptoms of toxicity in humans, particularly in relation to the liver and kidney | promising activity against human breast, ovarian and liver cancer |
